Experimental data taken from publication PMC4503722, “Novel Phenotypic Outcomes Identified for a Public Collection of Approved Drugs from a Publicly Accessible Panel of Assays” (PLoS ONE, 2015).
Where two headings read alike, the source gives them in different places.

Key:
INS-1E cells = assay: cells; assay type: cell-based, rat; settings: for 5mMGluc_INS1E SecretionMod IC50/EC50: assay number 8; for 5mMGluc_INS1E SecretionMod IC50/EC50 / IC50/EC50, 5mMGluc_INS1E SecretionMod (assay number 8): 5 mM glucose; for EC50: read-out: Insulin Secretion;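 as to 5mMGluc INS1E SecretionMod IC50/EC50: secreted insulin quantified by homogeneous immunoassay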;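 as to IC50/EC50, 5mMGluc INS1E SecretionMod (assay number 8): secreted insulin quantified by homogeneous immunoassay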
SW480 = assay: cells; assay type: cell-based; settings: for IC50: read-out: Basal_Viability ATP SW480
HT-29 = assay: cells; assay type: cell-based; settings: assay number 28; basal
RKO = assay: cells; assay type: cell-based
HCT116 = assay: cells; assay type: cell-based; settings: for IC50: read-out: Basal_Viability ATP HCT116
[1] = test system: HCT116 cells treated with a GSK3β inhibitor; assay: cells; assay type: cell-based; settings: for IC50: read-out: GSK3b inh pretreated_Viability ATP HCT116
Colo320 = assay: cells; assay type: cell-based
SNU-C1 = assay: cells; assay type: cell-based
DLD-1 = assay: cells; assay type: cell-based
[2] = test system: nuclear β-catenin in C2C12 cells; assay: cells; assay type: cell-based; settings: for EC50: read-out: Wnt Pathway
NCI-H716 cells = assay: cells; assay type: cell-based, Human; settings: assay number 12
[3] = test system: ECFC/ADSC co-culture cell nuclei number
HeLa cells = assay: cells; assay type: cell-based; settings: read-out: CellCycle G2/M
[4] = test system: endothelial tube formation in co-cultures of ECFCs and ADSCs treated with VEGF; assay: cells; assay type: cell-based, human; settings: read-out: Anti-Angiogenesis

Q: With `CC(C(O)c1ccccc1)N(C)CCOC(c1ccccc1)c1ccccc1` (stereo not drawn) [NCGC00181913-02] as the molecule, how does the “5mMGluc_INS1E SecretionMod IC50/EC50” value (INS-1E cells) read?
A: > 33.33 µM

Q: What does the source list for `O=C1NCN(c2ccccc2)C12CCN(CCCOc1ccc(F)cc1)CC2` [NCGC00024633-07]?
A: Basal_Viability ATP SW480 IC50/EC50 (SW480; assay number 24, basal): 4.608 µM; Basal_Viability ATP HT-29 IC50/EC50 (HT-29): 2.458 µM; Basal_Viability ATP RKO IC50/EC50 (RKO; assay number 29, basal): 5.3051 µM; Basal_Viability ATP HCT116 IC50/EC50 (HCT116; assay number 25, basal): 8.82 µM; GSK3b inh pretreated_Viability ATP HCT116 IC50/EC50 ([1]; assay number 26, GSK3b inhibitor pretreated): 5.333 µM; Basal_Viability ATP Colo 320 IC50/EC50 (Colo320; assay number 27, basal): 11.821 µM; Basal_Viability ATP SNU-C1 IC50/EC50 (SNU-C1; assay number 30, basal): 0.2416 µM; Basal_Viability ATP DLD-1 IC50/EC50 (DLD-1; assay number 23, basal): 0.8817 µM; 5mMGluc_INS1E SecretionMod IC50/EC50 (INS-1E cells): > 33.33 µM

Q: Which “5mMGluc_INS1E SecretionMod IC50/EC50” value (INS-1E cells) does the source give for `CCO[C@H](Cc1ccc(OCCc2ccc(OS(C)(=O)=O)cc2)cc1)C(=O)O` [NCGC00182082-03] here?
A: > 33.33 µM

Q: With `CNC(=O)c1cc(Oc2ccc(NC(=O)Nc3ccc(Cl)c(C(F)(F)F)c3)cc2)ccn1` [Sorafenib, reference compound] as the molecule, how does the “activity in the Wnt potentiation module (in words)” value [2] read?
A: None of these agents, however, possessed appreciable activity

Q: With `CN(C)CC[C@H](c1ccc(Cl)cc1)c1ccccn1` [NCGC00015227-08] as the molecule, how does the “5mMGluc_INS1E SecretionMod IC50/EC50” value (INS-1E cells) read?
A: 17.749 µM

Q: `COCCCOc1ccnc(C[S+]([O-])c2nc3ccccc3[n-]2)c1C.[Na+]` (stereo not drawn) [NCGC00159518-05] was tested. Which “IC50/EC50, 5mMGluc_INS1E SecretionMod (assay number 8)” value (from here on “IC50/EC50, 5mMGluc_INS1E SecretionMod”) (INS-1E cells) did it give?
A: > 33.33 µM

Q: `N=c1nc(N2CCCCC2)cc(N)n1O` [NCGC00015673-13] was tested. Which “IC50/EC50, 5mMGluc_INS1E SecretionMod” value (INS-1E cells) did it give?
A: > 33.33 µM

Q: For `Clc1ccc(COC(Cn2ccnc2)c2ccc(Cl)cc2Cl)cc1.O=[N+]([O-])O` (stereo not drawn) [NCGC00018258-10], which “hNCI-H716 GLP1 Secretion IC50/EC50” value (NCI-H716 cells) is on record?
A: 25.6136 µM

Q: What about the “VEGF_ADSC\ECFC Angio Hoechst NucArea IC50/EC50” value [3] of the same molecule?
A: 9.932 µM

Q: With `CCN(CC)CCOc1ccc(Cc2ccccc2)cc1` [NCGC00024762-04] as the molecule, how does the “5mMGluc_INS1E SecretionMod IC50/EC50” value (INS-1E cells) read?
A: > 33.33 µM

Q: Which results are given for `O=C(CCBr)N1CCN(C(=O)CCBr)CC1` [Abbott brand of pipobroman]?
A: IC50 (SW480): > 20 µM; EC50 (HeLa cells): > 10 µM; EC50 [2]: > 10 µM; IC50 (HCT116): > 20 µM; IC50 [1]: 14 µM; IC50 [4]: 1.37 µM; IC50 (DLD-1; read-out: Basal_Viability ATP DLD-1): > 20 µM; EC50 (INS-1E cells): > 10 µM

Q: `CN1CCN2c3ccccc3Cc3ccccc3C2C1` (stereo not drawn) [NCGC00015656-12] was tested. Which “5mMGluc_INS1E SecretionMod IC50/EC50” value (INS-1E cells) did it give?
A: > 11.11 µM

Q: With `Cc1ccc(O)c([C@H](CCN(C(C)C)C(C)C)c2ccccc2)c1` [NCGC00263557-01] as the molecule, how does the “5mMGluc_INS1E SecretionMod IC50/EC50” value (INS-1E cells) read?
A: > 33.33 µM

Q: `CCN(CC)CCCC(C)Nc1c2ccc(Cl)cc2nc2ccc(OC)cc12` (stereo not drawn) [Mepacrine] was tested. Which IC50 (SW480; Homo sapiens, SW480, basal) did it give?
A: 3.6 µM

Q: What about the IC50 (RKO; Homo sapiens, RKO, read-out: Basal_Viability ATP RKO) of the same molecule?
A: 3.42 µM

Q: What about the EC50 (HeLa cells; Homo sapiens, HeLa, IC50 / EC50, HeLa) of the same molecule?
A: > 10 µM

Q: What about the EC50 ([2]; Mus musculus, C2C12, IC50 / EC50, C2C12 beta-catenin translocation) of the same molecule?
A: > 10 µM

Q: What about the IC50 (HCT116; Homo sapiens, HCT-116, basal) of the same molecule?
A: 5.81 µM

Q: What about the IC50 ([1]; Homo sapiens, HCT-116, GSK3b inhibitor pretreated) of the same molecule?
A: 4.48 µM

Q: And the IC50 (Colo320; Homo sapiens, COLO 320, read-out: Basal_Viability ATP Colo 320)?
A: 8.44 µM

Q: And the IC50 (SNU-C1; Homo sapiens, SNU-C1, basal, read-out: Basal_Viability ATP SNU-C1)?
A: 3.84 µM

Q: And the IC50 (DLD-1; Homo sapiens, DLD-1, read-out: Basal_Viability ATP DLD-1)?
A: 7.15 µM

Q: What about the EC50 (INS-1E cells; Rattus norvegicus, IC50 / EC50, INS-1E) of the same molecule?
A: 4.07 µM

Q: For `CN(C)CCN1C(=O)c2ccccc2N(C)c2ccccc21` [NCGC00160395-04], which “IC50/EC50, 5mMGluc_INS1E SecretionMod” value (INS-1E cells) is on record?
A: > 33.33 µM
